# Test results published in ChEMBL document CHEMBL1201862, “PubChem BioAssay data set” (2004).
# Calls of active or inactive are those of the source.
# Tests used:
# Trypsin = Trypsin (Sus scrofa, UniProt P00761); test: trypsin protease activity blockade – biochemical, quenched peptide fluorescence, cherry-pick, selectivity assay for Rce1 protease inhibitor project, dose response (AID 488789)
# CAAX prenyl protease 2 = CAAX prenyl protease 2 (Saccharomyces cerevisiae S288c, UniProt Q03530); type: biochemical
# [1] = target: T1, E3 ubiquitin-protein ligase XIAP (Homo sapiens, UniProt P98170); test: Counter Screen using XIAP-Bir3 for Chemical Antagonists of Bir1/2 domains of IAP-family anti-apoptotic proteins. [Related pubchem assays (depositor defined):AID1018, AID1449, AID1514, AID1638, AID1749, AID1750, AID488957, AID488963]
# [2] = target: T1, E3 ubiquitin-protein ligase XIAP; test: small molecules displacing peptide from XIAP – biochemical, IAP family, fluorescence polarization (AID 1018); type: functional
# [3] = target: Peroxisome proliferator-activated receptor gamma/Nuclear receptor coactivator 1 (Homo sapiens, UniProt P37231); test: (§1) TR-FRET dose response biochemical High Throughput Screening assay for agonists of the steroid receptor coactivator 1 (SRC-1) recruitment by the peroxisome proliferator-activated receptor gamma (PPAR gamma): non-selective agonists. [Related pubchem assays (depositor defined):AID1300, AID1808, AID504735, AID631]; type: protein assay
# [4] = target: Peroxisome proliferator-activated receptor gamma/Nuclear receptor coactivator 3 (Homo sapiens, UniProt P37231); test: as §1, with “3 (SRC-3)” for “1 (SRC-1)”, “assays: 1301 (Confirmation screen.), 1048 (Primary screen.)]” for “assays (depositor defined):AID1300, AID1808, AID504735, AID631]”; type: functional
# [5] = target: Peroxisome proliferator-activated receptor gamma/Nuclear receptor coactivator 2 (Homo sapiens, UniProt P37231); test: TR-FRET dose response biochemical High Throughput Screening assay for agonists of the steroid receptor coactivator 2 (SRC-2) recruitment by the peroxisome proliferator-activated receptor gamma (PPAR gamma): non-selective agonists. [Related pubchem assays: 1297, 1032 ]; type: functional
# Cytochrome P450 2D6 = Cytochrome P450 2D6 (Homo sapiens, UniProt P10635);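 also: CYP2D6 member of a cytochrome P450 panel assay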
# [6] = target: G-protein coupled receptor 55 (Homo sapiens, UniProt Q9Y2T6); test: inhibition of LPI-stimulated GPR55 beta-arrestin translocation – imaging, U2OS, beta-arrestin-GFP, LPI agonist, primary screen (AID 2013); type: functional;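 also: antagonist potency measured as reduced agonist-driven arrestin aggregation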
# [7] = test system: Streptococcus sp. 'group A'; test: Streptococcus pyogenes SK(-)GAS viability under kanamycin – luminescence, BacTiterGlo, confirmation, counter-screen for streptokinase expression inhibitor project, dose response (AID 1900); type: functional, organism-based
# [8] = microbe, parasite or virus in culture; type: functional; settings: Mycobacterium tuberculosis
# Streptococcus = test: GAS UMAA2166 growth inhibition – luminescence, BacTiterGlo, counter-screen for streptokinase expression inhibitor project, dose response (AID 1915); type: functional, organism-based;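 also: potency for reduction of bacterial viability or growth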
# [9] = THP-1 cell cytotoxicity, dose response, cytotoxicity control for non-replicating M. tuberculosis project (AID 489025); type: functional
# [10] = HepG2 cell cytotoxicity, dose response, cytotoxicity control for non-replicating M. tuberculosis project (AID 489018); type: functional; settings: Mycobacterium tuberculosis
# [11] = Vero E6 cell cytotoxicity, dose response, cytotoxicity control for non-replicating M. tuberculosis project, secondary assay (AID 492998); type: functional, VeroE6; settings: Vero C1008
# Nonstructural protein 1 = Nonstructural protein 1 (Influenza A virus, UniProt Q194T2); type: functional, Influenza A virus (A/California/07/2009(H1N1))
# cells = type: functional
# HeLa = test: ATP-based viability loss in HeLa cells – cell-based, CellTiter-Glo luminescence, cherry-pick samples, cytotoxicity control for MITF activator project, dose response (AID 540259); type: functional; settings: Homo sapiens
# HEK293 [12] = test: PMA/Ionomycin induced NF-kB luciferase assay in 293- NF-kB-Luc stable cells. [Related pubchem assays: 1299, 1270, 1295, 1375, 1287, 1281, 1293, 1291, 1289, 1280, 465, 1364, 1282, 1372, 1365, 1370, 1367, 1366, 1269, 1373, 1292, 1290, 1302, 1371, 1283, 1271, 1294, 1374, 1368, 1369 ]; type: functional, cell-based; settings: Homo sapiens
# [13] = target: T2, Luciferin 4-monooxygenase (Photinus pyralis, UniProt P08659); test: In vitro luciferase assay using purified luciferase. [Related pubchem assays: 1299, 1270, 1295, 1375, 1287, 1281, 1293, 1291, 1289, 1280, 465, 1364, 1282, 1372, 1365, 1370, 1367, 1366, 1266, 1373, 1292, 1290, 1302, 1371, 1283, 1271, 1294, 1374, 1368, 1369 ]
# [14] = target: T2, Luciferin 4-monooxygenase; test: inhibition of purified Photinus pyralis luciferase – biochemical, luminescence, dose response (AID 1891)
# [15] = Luminescence Cell-Based Dose Confirmation HTS to Identify Inhibitors of Platelet Dense Granule Release. [Related pubchem assays: 1663 (Primary HTS), 1678 (Summary of Project)]; type: functional
# HEK293 [16] = test: Cytotoxicity assay in HEK293 cells. [Related pubchem assays (depositor defined):AID1266, AID1269, AID1270, AID1271, AID1280, AID1281, AID1282, AID1283, AID1287, AID1289, AID1290, AID1291, AID1292, AID1293, AID1294, AID1295, AID1299, AID1302, AID1364, AID1365, AID1366, AID1367, AID1369, AID1370, AID1371, AID1372, AID1373, AID1374, AID1375, AID1384 …; type: functional, cell-based; settings: Homo sapiens
# HEK293 [17] = test: TNF Induced NF-kB Luciferase in 293-NF-kB-Luc Stable Cells. [Related pubchem assays: 1266, 1299, 1269, 1373, 1292, 1290, 1302, 1371, 1283, 1270, 1295, 1271, 1375, 1294, 1374, 1281, 1293, 1291, 1289, 1280, 465, 1368, 1364, 1282, 1372, 1365, 1369, 1370, 1367, 1366 ]; type: functional, cell-based; settings: Homo sapiens
# HEK293 [18] = test: EBV LMP1 TES2 canonical NF-kB signalling blockers – cell-based, HEK293, luciferase, cherry-pick, dose response (AID 588343); type: functional; settings: Homo sapiens
# T1 sequence (P98170 whole entry): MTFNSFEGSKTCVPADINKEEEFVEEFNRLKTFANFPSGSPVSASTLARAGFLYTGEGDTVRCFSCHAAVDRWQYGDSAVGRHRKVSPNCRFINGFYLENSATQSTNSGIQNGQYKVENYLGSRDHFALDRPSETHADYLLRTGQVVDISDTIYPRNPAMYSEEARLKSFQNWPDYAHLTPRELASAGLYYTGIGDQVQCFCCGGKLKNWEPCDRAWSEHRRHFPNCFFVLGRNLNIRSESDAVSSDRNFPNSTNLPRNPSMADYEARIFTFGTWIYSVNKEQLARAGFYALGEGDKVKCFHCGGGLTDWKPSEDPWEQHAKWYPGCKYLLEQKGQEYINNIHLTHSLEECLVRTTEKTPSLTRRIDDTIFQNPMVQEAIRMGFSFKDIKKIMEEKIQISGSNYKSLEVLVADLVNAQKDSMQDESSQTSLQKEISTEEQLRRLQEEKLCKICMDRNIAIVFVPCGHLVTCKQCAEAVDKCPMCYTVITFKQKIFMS
# Chain of Peroxisome proliferator-activated receptor gamma/Nuclear receptor coactivator 3 (P37231 whole entry): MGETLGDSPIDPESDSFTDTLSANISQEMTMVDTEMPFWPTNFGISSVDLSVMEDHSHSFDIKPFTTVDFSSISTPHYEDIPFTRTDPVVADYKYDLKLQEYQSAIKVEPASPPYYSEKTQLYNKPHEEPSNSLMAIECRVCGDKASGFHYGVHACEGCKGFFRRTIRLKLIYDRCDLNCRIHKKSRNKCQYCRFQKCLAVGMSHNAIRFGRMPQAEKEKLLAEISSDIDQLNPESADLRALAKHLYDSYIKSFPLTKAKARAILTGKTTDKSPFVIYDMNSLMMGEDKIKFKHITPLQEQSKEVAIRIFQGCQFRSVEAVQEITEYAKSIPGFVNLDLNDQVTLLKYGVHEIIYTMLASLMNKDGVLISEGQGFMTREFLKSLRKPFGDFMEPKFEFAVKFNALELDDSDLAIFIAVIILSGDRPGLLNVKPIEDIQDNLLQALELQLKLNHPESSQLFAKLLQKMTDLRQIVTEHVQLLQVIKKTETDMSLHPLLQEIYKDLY
# Chain of Peroxisome proliferator-activated receptor gamma/Nuclear receptor coactivator 3 (Q9Y6Q9 whole entry, further chain): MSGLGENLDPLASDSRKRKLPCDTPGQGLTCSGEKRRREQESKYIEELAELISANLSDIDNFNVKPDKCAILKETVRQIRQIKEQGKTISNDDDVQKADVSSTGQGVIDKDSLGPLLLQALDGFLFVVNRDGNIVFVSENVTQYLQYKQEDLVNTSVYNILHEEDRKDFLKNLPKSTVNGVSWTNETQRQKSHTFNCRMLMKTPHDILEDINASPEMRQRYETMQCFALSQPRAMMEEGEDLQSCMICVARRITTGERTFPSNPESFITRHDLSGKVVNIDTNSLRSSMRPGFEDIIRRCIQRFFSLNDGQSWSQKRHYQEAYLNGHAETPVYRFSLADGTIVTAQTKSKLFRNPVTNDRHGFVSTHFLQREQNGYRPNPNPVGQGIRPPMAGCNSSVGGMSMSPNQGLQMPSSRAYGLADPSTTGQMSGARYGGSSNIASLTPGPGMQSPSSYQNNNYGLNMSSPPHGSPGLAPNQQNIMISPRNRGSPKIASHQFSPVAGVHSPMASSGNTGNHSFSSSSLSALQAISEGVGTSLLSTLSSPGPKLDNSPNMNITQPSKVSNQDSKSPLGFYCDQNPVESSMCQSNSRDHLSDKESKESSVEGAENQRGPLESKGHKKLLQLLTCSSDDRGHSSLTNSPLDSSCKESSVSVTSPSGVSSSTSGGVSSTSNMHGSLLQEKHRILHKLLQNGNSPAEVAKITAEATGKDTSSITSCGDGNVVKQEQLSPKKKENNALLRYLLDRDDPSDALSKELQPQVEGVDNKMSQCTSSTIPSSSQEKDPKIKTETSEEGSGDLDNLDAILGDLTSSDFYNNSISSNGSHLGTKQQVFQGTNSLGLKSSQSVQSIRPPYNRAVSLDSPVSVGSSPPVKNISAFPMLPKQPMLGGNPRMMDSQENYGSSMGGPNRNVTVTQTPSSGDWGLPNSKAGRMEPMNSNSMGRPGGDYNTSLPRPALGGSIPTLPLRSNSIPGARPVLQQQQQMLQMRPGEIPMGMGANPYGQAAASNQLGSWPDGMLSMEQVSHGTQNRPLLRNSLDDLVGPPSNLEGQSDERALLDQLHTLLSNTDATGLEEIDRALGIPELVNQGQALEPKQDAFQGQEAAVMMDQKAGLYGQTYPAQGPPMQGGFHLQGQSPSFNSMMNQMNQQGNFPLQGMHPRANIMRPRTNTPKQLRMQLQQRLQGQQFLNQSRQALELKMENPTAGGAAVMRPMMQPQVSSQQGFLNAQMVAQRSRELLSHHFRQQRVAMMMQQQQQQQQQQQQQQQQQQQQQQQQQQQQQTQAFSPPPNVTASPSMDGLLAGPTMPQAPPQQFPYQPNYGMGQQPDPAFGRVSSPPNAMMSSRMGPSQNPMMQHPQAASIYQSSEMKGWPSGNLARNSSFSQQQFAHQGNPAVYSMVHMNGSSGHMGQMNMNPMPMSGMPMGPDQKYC
# Chain of Peroxisome proliferator-activated receptor gamma/Nuclear receptor coactivator 1 (P37231 whole entry): as the sequence (P37231 whole entry) above
# Chain of Peroxisome proliferator-activated receptor gamma/Nuclear receptor coactivator 1 (Q15788 whole entry, further chain): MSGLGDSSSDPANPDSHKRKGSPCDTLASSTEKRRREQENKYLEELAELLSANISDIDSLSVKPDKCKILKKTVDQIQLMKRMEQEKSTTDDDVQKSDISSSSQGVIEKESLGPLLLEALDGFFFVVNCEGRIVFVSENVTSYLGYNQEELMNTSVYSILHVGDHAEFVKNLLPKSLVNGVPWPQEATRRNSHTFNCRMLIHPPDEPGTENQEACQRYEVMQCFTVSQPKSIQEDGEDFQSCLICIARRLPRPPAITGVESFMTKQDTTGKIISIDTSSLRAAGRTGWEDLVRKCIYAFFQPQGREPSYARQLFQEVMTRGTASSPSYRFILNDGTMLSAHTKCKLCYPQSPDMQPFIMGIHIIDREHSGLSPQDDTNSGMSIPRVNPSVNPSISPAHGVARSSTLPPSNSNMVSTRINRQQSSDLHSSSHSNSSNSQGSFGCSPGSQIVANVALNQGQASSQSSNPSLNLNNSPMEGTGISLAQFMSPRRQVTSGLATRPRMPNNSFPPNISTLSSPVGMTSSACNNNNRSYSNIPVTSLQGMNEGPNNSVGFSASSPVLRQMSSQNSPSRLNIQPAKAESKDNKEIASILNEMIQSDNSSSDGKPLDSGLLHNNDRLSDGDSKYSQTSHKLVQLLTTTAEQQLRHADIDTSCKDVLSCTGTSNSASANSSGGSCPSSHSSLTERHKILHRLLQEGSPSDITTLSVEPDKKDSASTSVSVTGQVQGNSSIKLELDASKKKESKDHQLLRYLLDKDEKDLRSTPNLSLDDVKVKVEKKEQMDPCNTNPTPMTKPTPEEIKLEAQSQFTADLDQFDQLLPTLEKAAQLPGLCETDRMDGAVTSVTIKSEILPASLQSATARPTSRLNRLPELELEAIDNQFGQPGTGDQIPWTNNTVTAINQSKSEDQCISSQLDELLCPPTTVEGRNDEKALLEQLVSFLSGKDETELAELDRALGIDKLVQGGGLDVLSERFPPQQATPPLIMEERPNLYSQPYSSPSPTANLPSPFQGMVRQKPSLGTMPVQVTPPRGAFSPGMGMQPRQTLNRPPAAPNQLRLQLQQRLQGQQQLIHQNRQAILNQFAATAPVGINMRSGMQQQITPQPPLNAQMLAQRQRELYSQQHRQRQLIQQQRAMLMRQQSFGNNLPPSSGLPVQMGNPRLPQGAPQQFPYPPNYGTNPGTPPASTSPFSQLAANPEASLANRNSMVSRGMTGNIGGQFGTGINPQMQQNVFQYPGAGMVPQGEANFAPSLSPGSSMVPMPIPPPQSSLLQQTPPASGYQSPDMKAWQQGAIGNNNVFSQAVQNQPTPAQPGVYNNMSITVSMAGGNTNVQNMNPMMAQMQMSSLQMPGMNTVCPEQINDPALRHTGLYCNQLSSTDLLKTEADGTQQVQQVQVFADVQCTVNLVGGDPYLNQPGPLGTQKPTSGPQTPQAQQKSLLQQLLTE
# T2 sequence (P08659 whole entry): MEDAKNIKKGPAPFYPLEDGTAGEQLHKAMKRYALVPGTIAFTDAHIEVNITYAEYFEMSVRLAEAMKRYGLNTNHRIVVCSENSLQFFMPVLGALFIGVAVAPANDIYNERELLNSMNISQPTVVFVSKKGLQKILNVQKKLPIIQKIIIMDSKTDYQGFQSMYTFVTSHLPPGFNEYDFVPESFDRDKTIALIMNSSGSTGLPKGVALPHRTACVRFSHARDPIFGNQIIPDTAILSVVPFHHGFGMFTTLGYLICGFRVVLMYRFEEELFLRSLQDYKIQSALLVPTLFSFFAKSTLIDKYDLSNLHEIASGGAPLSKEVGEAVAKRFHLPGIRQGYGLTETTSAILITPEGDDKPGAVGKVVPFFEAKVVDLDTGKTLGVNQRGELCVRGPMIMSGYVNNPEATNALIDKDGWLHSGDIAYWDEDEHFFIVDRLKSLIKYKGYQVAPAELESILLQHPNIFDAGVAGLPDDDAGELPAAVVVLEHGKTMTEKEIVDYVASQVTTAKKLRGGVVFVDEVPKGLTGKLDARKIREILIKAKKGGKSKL
structure (smiles),measurement,setting,value
Cc1cccc(/C=N/NC(=O)c2ccc(Br)cc2)c1,AC50,Trypsin,7.5 µM (active)
same,AC50,CAAX prenyl protease 2,7.44 µM (active)
Cc1ccccc1Oc1nnc(-c2cccs2)c2ccccc12,IC50,[1],> 100 µM (inactive)
same,IC50,[2],> 100 µM (not active)
O=C1C=C(c2cccs2)CC(c2cccs2)C1n1cnc([N+](=O)[O-])c1 (stereo not drawn),EC50,[3],18.5 µM (inactive)
same,EC50,[4],> 79.4 µM (not active)
same,EC50,[5],20.7 µM (not active)
same,AC50,Cytochrome P450 2D6,15.8 µM (inconclusive)
Cc1ccc(N(C)C(=O)c2cc(S(=O)(=O)N3CCc4ccccc43)cn2C)cc1,IC50,[6],0.769 µM (active)
COCc1cc(O)nc(Nc2nc3ccccc3o2)n1,EC50,[7],2.21 µM (active)
same,CC50,[8],16 µM (active)
same,EC50,Streptococcus,9.09 µM (active)
same,CC50,[9],19.4 µM (active)
same,CC50,[10],16.8 µM (active)
same,CC50,[11],7.52 µM (active)
same,IC50,Nonstructural protein 1,10.8 µM (active)
same,IC50,cells,1.85 µM (active)
O=C(Nc1ccccc1)c1ccc(-c2ccccc2)s1,EC50,[3],8.84 µM (active)
same,EC50,[4],35 µM (not active)
same,EC50,[5],10.6 µM (not active)
same,AC50,HeLa,48 µM (active)
CC(=O)c1ccc(-c2nc3c4ccccc4ccn3c2C(C)=O)o1,EC50,HEK293 [12],0.0552 µM (active)
same,EC50,[13],> 8 µM (not active)
same,EC50,[14],> 112 µM (not active)
same,EC50,[15],> 112 µM (not active)
same,EC50,HEK293 [16],> 8 µM (inactive)
same,EC50,HEK293 [17],0.503 µM (active)
same,AC50,HEK293 [18],3.1 µM (active)
